These molecules were tested against T1, CYP4A (Homo sapiens, UniProt Q02928) (assay: CYP4A enzyme assay (luminescence, Luciferin-ME)). Settings: Compound concentration 5 μM; 50%-70%; read-out: % Inhibition 50%-70%.
T1 construct: purchased; host or cells: bacterial membranes ('bactosome')
T1 sequence (Q02928 5-519): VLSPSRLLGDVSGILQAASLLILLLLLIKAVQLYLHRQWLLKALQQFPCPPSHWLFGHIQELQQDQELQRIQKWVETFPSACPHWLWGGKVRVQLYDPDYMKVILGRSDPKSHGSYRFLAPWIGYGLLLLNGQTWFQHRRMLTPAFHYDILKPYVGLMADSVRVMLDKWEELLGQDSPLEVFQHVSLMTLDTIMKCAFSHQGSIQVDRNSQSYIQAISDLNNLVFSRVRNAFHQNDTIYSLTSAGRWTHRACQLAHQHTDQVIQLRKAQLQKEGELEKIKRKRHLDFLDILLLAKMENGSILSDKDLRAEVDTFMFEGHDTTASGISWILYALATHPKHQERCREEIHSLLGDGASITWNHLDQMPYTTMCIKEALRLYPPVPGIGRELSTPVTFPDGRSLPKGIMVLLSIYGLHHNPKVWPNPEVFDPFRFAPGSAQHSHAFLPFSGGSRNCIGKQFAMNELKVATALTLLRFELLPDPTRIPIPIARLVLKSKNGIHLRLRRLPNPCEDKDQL
Assay type: biochemical
Description: The CYP4A inhibitory activity of the above compounds of the examples was measured. The reagents used in the experiment were commercially available, and were prepared and used when necessary. The device used for measuring activity was SpectraMax of MOLECULAR DEVICES.
CYP4A bactosome and the compounds to be evaluated (5 μM) were each diluted in assay buffer (100 mM KPO4, 0.1% BSA, 1 mM DTT) and mixed in a 384 well plate (white opaque polystyrene nontreated flat-bottom well), and reaction was carried out at room temperature for 15 minutes. To induce CYP4A reaction, 5 mM Luciferin-ME, NADPH Regeneration system (10× sol. A, 20× sol. B in assay buffer, Cat. Number: V865B, Promega) were sequentially added and mixed, and the reaction was carried out at room temperature for 30 minutes. Then, Luciferin Detection reagent was added thereto and reacted at room temperature for 15 minutes to stop the CYP4A reaction and induce a luminescence reaction. Finally, after measuring the luminescence value using a microplate reader, the inhibition of CYP4A activity by the compounds was evaluated by comparing the luminescence value from each well.
Work on `CC(=O)Nc1ccc(S(=O)(=O)N2CCCC(C(=O)N3CCN(c4nc(C)nc5ccccc45)CC3)C2)cc1` (stereo not drawn) [Example 79, N-(4-(3-(1-(2-methylquinazolin-4-yl)piperazine-4-carbonyl)piperidin-1-ylsulfonyl)phenyl)acetamide] yielded an inhibition at 5 µM of 50 to 70%.
`COc1ccc(C(=O)N2CCCC(C(=O)N3CCN(c4cc(C(F)(F)F)nc5ccccc45)CC3)C2)cc1` (stereo not drawn) [Example 99, (1-(4-methoxybenzoyl)piperidin-3-yl)(4-(2-(trifluoromethyl)quinolin-4-yl)piperazin-1-yl)methanone] was tested, and the inhibition at 5 µM was 50 to 70%.
`COC(=O)CCS(=O)(=O)N1CCCC(C(=O)N2CCN(c3ccnc4ccccc34)CC2)C1` (stereo not drawn) [Example 132, methyl 3-((3-(4-(quinolin-4-yl)piperazine-1-carbonyl)piperidin-1-yl)sulfonyl)propanoate] was tested, and the inhibition at 5 µM was 50 to 70%.
Molecule `O=C(C1CCCN(S(=O)(=O)CCCO)C1)N1CCN(c2ccnc3cc(F)ccc23)CC1` (stereo not drawn) [Example 131, (4-(7-fluoroquinolin-4-yl)piperazin-1-yl)(1-((3-hydroxypropyl)sulfonyl)piperidin-3-yl)methanone] has an inhibition at 5 µM of 50 to 70%.
`CC(=O)Nc1ccc(C(=O)N2CCCC(C(=O)N3CCN(c4cc(C(F)(F)F)nc5ccccc45)CC3)C2)cc1` (stereo not drawn) [Example 95, N-(4-(3-(1-(2-(trifluoromethyl)quinolin-4-yl)piperazine-4-carbonyl)piperidine-1-carbonyl)phenyl)acetamide] showed an inhibition at 5 µM of 50 to 70%.
Work on `COc1ccc(C(=O)N2CCCC(C(=O)N3CCN(c4ccnc5cc(OC)ccc45)CC3)C2)cc1` (stereo not drawn) [Example 94, (4-(7-methoxyquinolin-4-yl)piperazin-1-yl)(1-(4-methoxyphenylcarbonyl)piperidin-3-yl)methanone] yielded an inhibition at 5 µM of 50 to 70%.
`Cc1cc(N2CCN(C(=O)C3CCCN(S(=O)(=O)c4cccnc4)C3)CC2)c2ccccc2n1` (stereo not drawn) [Example 125, (4-(2-methylquinolin-4-yl)piperazin-1-yl)(1-(pyridin-3-ylsulfonyl)piperidin-3-yl)methanone] gave an inhibition at 5 µM of 50 to 70%.

Same assay, conditions: Compound concentration 5 μM; 70%-90%; read-out: % Inhibition 70%-90%
`CC(C)n1cnc(S(=O)(=O)N2CC[C@H](C(=O)N3CCN(c4ccnc5cc(F)ccc45)CC3)C2)n1` [Example 141] gave an inhibition at 5 µM of 70 to 90%.
`O=C(C1CCN(S(=O)(=O)c2ccc(Br)cc2)CC1)N1CCN(c2ccnc3ccccc23)CC1` [Example 63, (1-((4-bromophenyl)sulfonyl)piperidin-4-yl)(4-(quinolin-4-yl)piperazin-1-yl)methanone] showed an inhibition at 5 µM of 70 to 90%.
`COc1ccc2c(N3CCN(C(=O)C4CCCN(C(=O)c5ccc(F)cc5)C4)CC3)ccnc2c1` (stereo not drawn) [Example 90, (1-(4-fluorobenzoyl)piperidin-3-yl)(4-(7-methoxyquinolin-4-yl)piperazin-1-yl)methanone] showed an inhibition at 5 µM of 70 to 90%.
`O=C(C1CCN(S(=O)(=O)c2ccc(C(F)(F)F)cn2)C1)N1CCN(c2ccnc3ccccc23)CC1` (stereo not drawn) [Example 41, (4-(quinolin-4-yl)piperazin-1-yl)(1-((5-(trifluoromethyl)pyridin-2-yl)sulfonyl)pyrrolidin-3-yl)methanone] showed an inhibition at 5 µM of 70 to 90%.
With `CN(C)c1ccc(S(=O)(=O)N2CCCC(C(=O)N3CCN(c4ncnc5ccccc45)CC3)C2)cc1` (stereo not drawn) [Example 77] the inhibition at 5 µM was 70 to 90%.
`O=C(c1ccccc1)N1CCCC(C(=O)N2CCN(c3ccnc4cc(F)ccc34)CC2)C1` (stereo not drawn) [Example 107, (1-benzoylpiperidin-3-yl)(4-(7-fluoroquinolin-4-yl)piperazin-1-yl)methanone] gave an inhibition at 5 µM of 70 to 90%.
In the case of `O=C([C@H]1CCN(S(=O)(=O)c2ncnn2CCO)C1)N1CCN(c2ccnc3cc(F)ccc23)CC1` [Example 145, (S)-(4-(7-fluoroquinolin-4-yl)piperazin-1-yl)(1-((1-(2-hydroxyethyl)-1H-1,2,4-triazol-5-yl)sulfonyl)pyrrolidin-3-yl)methanone], the inhibition at 5 µM is reported as 70 to 90%.

Same assay, conditions: Compound concentration 5 μM; Greater than 90%; read-out: % Inhibition Greater than 90%
`O=C([C@H]1CCN(S(=O)(=O)c2ncn[nH]2)C1)N1CCN(c2ccnc3ccc(F)cc23)CC1` [Example 136, (S)-(1-((1H-1,2,4-triazol-5-yl)sulfonyl)pyrrolidin-3-yl)(4-(6-fluoroquinolin-4-yl)piperazin-1-yl)methanone] was tested, and the inhibition at 5 µM was over 90%.
`CC(=O)Nc1ccc(S(=O)(=O)N2CCC(C(=O)N3CCN(c4ccnc5cc(F)ccc45)CC3)C2)cc1` (stereo not drawn) [Example 1, N-(4-((3-(4-(7-fluoroquinolin-4-yl)piperazine-1-carbonyl)pyrrolidin-1-yl)sulfonyl)phenyl)acetamide] was tested, and the inhibition at 5 µM was over 90%.
`CC(C)(C)c1n[nH]c(S(=O)(=O)N2CCC(C(=O)N3CCN(c4ccnc5cc(F)ccc45)CC3)C2)n1` (stereo not drawn) [Example 20, (1-((5-(tert-butyl)-4H-1,2,4-triazol-3-yl)sulfonyl)pyrrolidin-3-yl)(4-(7-fluoroquinolin-4-yl)piperazin-1-yl)methanone] was tested, and the inhibition at 5 µM was over 90%.
`O=C([C@H]1CCN(S(=O)(=O)c2ncn[nH]2)C1)N1CCN(c2ccnc3cc(O)ccc23)CC1` [Example 164, (S)-(1-((1H-1,2,4-triazol-5-yl)sulfonyl)pyrrolidin-3-yl)(4-(7-hydroxyquinolin-4-yl)piperazin-1-yl)methanone] gave an inhibition at 5 µM of over 90%.
In the case of `Cn1ccnc1S(=O)(=O)N1CCCC(C(=O)N2CCN(c3ccnc4ccccc34)CC2)C1` (stereo not drawn) [Example 120, (1-(1-methyl-1H-imidazol-2-ylsulfonyl)piperidin-3-yl)(4-(quinolin-4-yl)piperazin-1-yl)methanone], the inhibition at 5 µM is reported as over 90%.
Work on `O=C(C1CCN(S(=O)(=O)c2ncc[nH]2)C1)N1CCN(c2ccnc3cc(F)ccc23)CC1` (stereo not drawn) [Example 13, (1-((1H-imidazol-2-yl)sulfonyl)pyrrolidin-3-yl)(4-(7-fluoroquinolin-4-yl)piperazin-1-yl)methanone] yielded an inhibition at 5 µM of over 90%.
`Cn1cc(S(=O)(=O)N2CCC(C(=O)N3CCN(c4ccnc5ccccc45)CC3)C2)cn1` (stereo not drawn) [Example 44, (1-((1-methyl-1H-pyrazol-4-yl)sulfonyl)pyrrolidin-3-yl)(4-(quinolin-4-yl)piperazin-1-yl)methanone] was tested, and the inhibition at 5 µM was over 90%.
`O=C([C@H]1CCN(S(=O)(=O)c2ncn[nH]2)C1)N1CCN(c2ccnc3cc(F)ccc23)CC1` [Example 19, (S)-(1-((1H-1,2,4-triazol-5-yl)sulfonyl)pyrrolidin-3-yl)(4-(7-fluoroquinolin-4-yl)piperazin-1-yl)methanone] was tested, and the inhibition at 5 µM was over 90%.
For `O=C([C@H]1CCN(S(=O)(=O)c2ncc[nH]2)C1)N1CCN(c2ccnc3cc(F)c(F)cc23)CC1` [Example 169, (S)-(1-((1H-imidazol-2-yl)sulfonyl)pyrrolidin-3-yl)(4-(6,7-difluoroquinolin-4-yl)piperazin-1-yl)methanone], the inhibition at 5 µM was over 90%.
In the case of `CC(=O)Nc1ccc(S(=O)(=O)N2CCCC(C(=O)N3CCN(c4ccnc5cc(F)ccc45)CC3)C2)cn1` (stereo not drawn) [Example 60, N-(5-((3-(4-(7-fluoroquinolin-4-yl)piperazine-1-carbonyl)piperidin-1-yl)sulfonyl)pyridin-2-yl)acetamide], the inhibition at 5 µM is reported as over 90%.
In the case of `O=C(C1CCN(S(=O)(=O)c2ccc(-c3ccncc3)cc2)C1)N1CCN(c2ccnc3cc(F)ccc23)CC1` (stereo not drawn) [Example 17, (4-(7-fluoroquinolin-4-yl)piperazin-1-yl)(1-((4-(pyridin-4-yl)phenyl)sulfonyl)pyrrolidin-3-yl)methanone], the inhibition at 5 µM is reported as over 90%.
`O=C(C1CCN(S(=O)(=O)c2ccc(N3CCOCC3)cc2)C1)N1CCN(c2ccnc3ccccc23)CC1` (stereo not drawn) [Example 35, (1-((4-morpholinophenyl)sulfonyl)pyrrolidin-3-yl)(4-(quinolin-4-yl)piperazin-1-yl)methanone] gave an inhibition at 5 µM of over 90%.
`O=C(C1CN(S(=O)(=O)c2ccc(O)cc2)C1)N1CCN(c2ccnc3cc(F)ccc23)CC1` [Example 66, (4-(7-fluoroquinolin-4-yl)piperazin-1-yl)(1-((4-hydroxyphenyl)sulfonyl)azetidin-3-yl)methanone] was tested, and the inhibition at 5 µM was over 90%.
With `O=C(C1CCN(S(=O)(=O)c2ccc(-c3ccncc3)cc2)CC1)N1CCN(c2ccnc3ccccc23)CC1` [Example 64, (1-((4-(pyridin-4-yl)phenyl)sulfonyl)piperidin-4-yl)(4-(quinolin-4-yl)piperazin-1-yl)methanone] the inhibition at 5 µM was over 90%.
`O=C([C@H]1CCN(S(=O)(=O)c2ncc[nH]2)C1)N1CCN(c2ccnc3cc(F)ccc23)CC1` [Example 146, (S)-(1-((1H-imidazol-2-yl)sulfonyl)pyrrolidin-3-yl)(4-(7-fluoroquinolin-4-yl)piperazin-1-yl)methanone] was tested, and the inhibition at 5 µM was over 90%.
Work on `O=C([C@@H]1CCN(S(=O)(=O)c2ncn[nH]2)C1)N1CCN(c2ccnc3cc(F)ccc23)CC1` [Example 134, (R)-(1-((1H-1,2,4-triazol-5-yl)sulfonyl)pyrrolidin-3-yl)(4-(7-fluoroquinolin-4-yl)piperazin-1-yl)methanone] yielded an inhibition at 5 µM of over 90%.

From patent US12612384B2, “Heterocyclic CYP4A inhibitor compounds and compositions thereof” (MBD CO., LTD., priority 2021, dated 2026)
